Experimental data reported in BindingDB's records for doi:10.1016/j.chembiol.2005.07.009 (University of Dundee, 2005).

How the values were obtained:
[1] = biological target: cAMP-specific 3',5'-cyclic phosphodiesterase 4A (Homo sapiens, UniProt P27815); assay: PDE 4A Assay; conditions: pH 7.5; 30 °C
Protocol: Phosphodiesterase 4A (PDE4A) was assayed using an Sf9-expressed GST-fusion, and activity was monitored by hydrolysis of [3H]cAMP to [3H]AMP using the PDE-SPA kit from Amersham Pharmacia Biotech.

Endochitinase B1 [Y245F] = Endochitinase B1 [Y245F] (Aspergillus fumigatus, UniProt Q873X9, Y245F); assay: Enzyme Inhibition Assay
Endochitinase B1 [D175A] = Endochitinase B1 [D175A] (Aspergillus fumigatus, UniProt Q873X9, D175A); assay: Enzyme Inhibition Assay
Endochitinase B1 [A217G] = Endochitinase B1 [A217G] (Aspergillus fumigatus, UniProt Q873X9, A217G); assay: Enzyme Inhibition Assay
Endochitinase B1 [M243A] = Endochitinase B1 [M243A] (Aspergillus fumigatus, UniProt Q873X9, M243A); assay: Enzyme Inhibition Assay
Endochitinase B1 [E322A] = Endochitinase B1 [E322A] (Aspergillus fumigatus, UniProt Q873X9, E322A); assay: Enzyme Inhibition Assay
Endochitinase B1 [T138A] = Endochitinase B1 [T138A] (Aspergillus fumigatus, UniProt Q873X9, T138A); assay: Enzyme Inhibition Assay
Endochitinase B1 [E177A] = Endochitinase B1 [E177A] (Aspergillus fumigatus, UniProt Q873X9, E177A); assay: Enzyme Inhibition Assay
Endochitinase B1 [R301K] = Endochitinase B1 [R301K] (Aspergillus fumigatus, UniProt Q873X9, R301K); assay: Enzyme Inhibition Assay
Endochitinase B1 [D246A] = Endochitinase B1 [D246A] (Aspergillus fumigatus, UniProt Q873X9, D246A); assay: Enzyme Inhibition Assay

Chain of cAMP-specific 3',5'-cyclic phosphodiesterase 4A (P27815 whole entry, the tested form may be a part): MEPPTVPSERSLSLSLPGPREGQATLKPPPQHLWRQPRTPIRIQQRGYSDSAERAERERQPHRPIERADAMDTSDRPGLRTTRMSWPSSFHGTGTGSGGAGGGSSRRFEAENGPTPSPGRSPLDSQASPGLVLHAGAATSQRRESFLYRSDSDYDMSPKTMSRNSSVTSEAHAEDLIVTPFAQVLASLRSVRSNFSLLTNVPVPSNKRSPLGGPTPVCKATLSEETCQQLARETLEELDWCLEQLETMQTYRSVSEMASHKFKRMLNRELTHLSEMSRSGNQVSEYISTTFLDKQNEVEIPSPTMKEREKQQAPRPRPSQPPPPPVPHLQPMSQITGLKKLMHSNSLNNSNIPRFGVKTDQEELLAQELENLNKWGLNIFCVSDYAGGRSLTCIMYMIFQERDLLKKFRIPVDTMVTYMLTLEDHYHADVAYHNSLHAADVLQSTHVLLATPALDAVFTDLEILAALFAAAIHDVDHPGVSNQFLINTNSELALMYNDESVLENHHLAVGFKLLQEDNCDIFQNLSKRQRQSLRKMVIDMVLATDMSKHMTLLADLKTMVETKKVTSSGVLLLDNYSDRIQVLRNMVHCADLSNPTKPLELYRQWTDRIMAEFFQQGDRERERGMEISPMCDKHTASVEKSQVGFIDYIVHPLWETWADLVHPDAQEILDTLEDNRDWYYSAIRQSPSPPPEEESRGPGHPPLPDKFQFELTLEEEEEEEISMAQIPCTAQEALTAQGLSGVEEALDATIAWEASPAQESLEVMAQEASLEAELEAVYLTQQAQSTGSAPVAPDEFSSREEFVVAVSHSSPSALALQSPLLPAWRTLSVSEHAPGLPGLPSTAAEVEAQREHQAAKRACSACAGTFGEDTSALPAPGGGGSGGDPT

IC50 [1] [µM] | SMILES | Kd (Endochitinase B1 [Y245F]) [µM] | Kd (Endochitinase B1 [D175A]) [µM] | Kd (Endochitinase B1 [A217G]) [µM] | Kd (Endochitinase B1 [M243A]) [µM] | Kd (Endochitinase B1 [E322A]) [µM] | Kd (Endochitinase B1 [T138A]) [µM] | Kd (Endochitinase B1 [E177A]) [µM] | Kd (Endochitinase B1 [R301K]) [µM] | Kd (Endochitinase B1 [D246A]) [µM]
747 | Cn1c(=O)c2c(ncn2C)n(C)c1=O |  |  |  |  |  |  |  |  | 
 | CC(=O)CCCCn1c(=O)c2c(ncn2C)n(C)c1=O [1-(5-Oxohexyl)theobromine (pentoxifylline)] | 64 | 100 | 77 | 18 | 45 | 65 | 36 | 17 | 62
